Tested on: unstimulated hHSPC
Assay: lentiviral vector (LV) transduction of unstimulated HSPC, % GFP+ cells by flow cytometry
Type: cell-based, human
Settings: for LV transduction of unstimulated hHSPC vs DMSO control: FIG. 6D-E; for effect on transduction efficiency of quiescent HSPC: in presence of CsH, 4 h pre-exposure to single nucleoside or purine/pyrimidine mix, vs CsH only control, FIG. 3A-D
Method: Cyclosporine H (Sigma-Aldrich) was resuspended and stored following the manufacturer's instructions. Where indicated CsH was added to the transduction medium at 8 μM concentration and washed out with the vector 16-20 hours later. dNTPs (NEB N1201AA) were added to the transduction medium where indicated at 10 uM concentration and washed out with the vector 16-20 hours later. dA (D8668), dC (D0776), dG (D0901) and dT (T1895) were all purchased from Sigma-Aldrich and resuspended and stored following the manufacturer's instructions. dNs mix, single dNs or combinations of dNs (500-1000 μM each) were added to the culture media 4 h-2 h before transduction and washed out with the vector 16-20 hours later. For dosage experiment 25 μM to 1000 μM concentrations of each dN was tested.
All cells were transduced at the indicated multiplicity of infection (MOI) as calculated by titration of vector stocks on 293T cells and expressed as transducing units (TU)/293T cell. For transduction, CB-derived HSPC were cultured in serum-free StemSpan medium supplemented with penicillin (100 IU/ml), streptomycin ([…]), 100 ng/ml recombinant human stem cell factor (rhSCF), 20 ng/ml recombinant human thrombopoietin (rhTPO), 100 ng/ml recombinant human Flt3 ligand (rhFlt3), and 20 ng/ml recombinant human IL6 (rhIL6) (all from Peprotech) 16 to 24 hours prior to transduction. Bone marrow and G-CSF mobilized peripheral blood CD34+ cells were cultured in CellGro medium (Cell Genix) supplemented with penicillin (100 IU/ml), streptomycin ([…]) and a cocktail of cytokines: 60 ng/ml IL-3, 100 ng/ml TPO, 300 ng/ml SCF, and 300 ng/ml FLT-3L (all from Cell Peprotech). HSPC were then transduced at a concentration of 1×10^6 cells per milliliter with the vector for 16 hours at the indicated multiplicity of infection (MOI), expressed as transducing units (TU)/293T cell, in the same medium. After transduction cells were washed and maintained in serum-free medium supplemented with cytokines as above until the reading of the percentage of positive cells by FACS, after which they were maintained in IMDM supplemented with 10% FBS, 25 ng/ml rhSCF, 5 ng/ml rhIL6-3, 25 ng/ml rhFlt3 and 5 ng/ml rhTPO. Unstimulated HSPC were transduced freshly isolated in StemSpan or CellGro medium supplemented with penicillin (100 IU/ml), streptomycin ([…]) for 16-24 hours and then maintained in presence of human cytokines and […] of the reverse-transcriptase inhibitor 3TC (from SIGMA) to avoid subsequent transduction due to cytokines stimulation. Unstimulated murine Lin-HSPC were transduced freshly isolated in serum-free StemSpan medium (StemCell Technologies) containing penicillin, streptomycin and glutamine at a concentration of 1×10^6 cells/ml for 16-20 hours and then maintained in presence of a combination of murine cytokines (20 ng/ml IL-3, 100 ng/ml SCF, 100 ng/ml Flt-3L, 50 ng/ml TPO all from Peprotech). MDM were transduced 7-10 days after differentiation. Activated T lymphocytes were transduced at a concentration of 10^6 cells/ml, after 3 days of stimulation with Dynabeads human T-activator CD3/CD28. Total CD14^− PBMC were transduced fresh at a concentration of 10^6 cells/ml for measurement of transduction.
GFP expression in transduced cells was measured 3-5 days post-transduction. Adherent MDM were detached by Tripsin-EDTA, washed and resuspended in PBS containing 2% fetal bovine serum (FBS). Cells grown in suspension were washed and resuspended in PBS containing 2% FBS. To measure HSPC subpopulation composition cells were harvested and incubated with anti-human receptor blocking antibodies for 15 min at 4° C. and then stained for 20 min at 4° C. with anti-human CD34 (RRID:AB_10827793), CD133 (RRID:AB_244346), CD90 (RRID:AB_559869) antibodies. […]

[1] = 7.5 μM Orotic Acid or 1 mM UMP alone, similarly to dNs alone
[2] = 7.5 μM Orotic Acid or 1 mM UMP combined with 8 μM CsH

SMILES	LV transduction of unstimulated hHSPC vs DMSO control [1]	LV transduction of unstimulated hHSPC vs DMSO control [2]	effect on transduction efficiency of quiescent HSPC
O=C(O)c1cc(=O)[nH]c(=O)[nH]1 [OA, orotic acid]	increase in LV transduction	further significantly increased	–
Nc1nc2c(ncn2[C@H]2C[C@H](O)[C@@H](CO)O2)c(=O)[nH]1 [dG, Deoxyguanosine]	–	–	did not observe any effect
Nc1ccn([C@H]2C[C@H](O)[C@@H](CO)O2)c(=O)n1 [dC, Deoxycytidine]	–	–	gene marking levels comparable to the combination of all dNs
O=c1ccn([C@@H]2O[C@H](COP(=O)(O)O)[C@@H](O)[C@H]2O)c(=O)[nH]1 [UMP, uridine 5′-monophosphate]	increase in LV transduction	further significantly increased	–
Nc1ncnc2c1ncn2[C@H]1C[C@H](O)[C@@H](CO)O1 [dA, Deoxyadenosine]	–	–	did not observe any effect

Source: patent US20240218330A1, “COMPOSITIONS FOR IMPROVING THE TRANSDUCTION OF CELLS BY VIRAL VECTORS” (Ospedale San Raffaele S.r.l., priority 2021, published 2024)
